{
  "source": "patent US7476401B2",
  "about": "“Protein and peptide delivery to mammalian cells in vitro” (Mirus Bio LLC, priority 2003, dated 2009)",
  "test_system": "HeLa cells",
  "experiment": "Protein delivery to HeLa cells, visualized by fluorescence confocal microscopy",
  "assay_type": "cell-based",
  "settings": "technique #2, FIG. 2B",
  "experimental": "HeLa cells were maintained in DMEM containing 10% fetal bovine serum. For polypeptide delivery, cells were plated in 6-well plates containing glass cover slips at a density of 50,000-100,000 cells per well and grown for 24-48 hours before incubation with polypeptide formulations.\nTwo different techniques were used for contacting polypeptide formulations with cells. In both techniques, cells were grown to 30-70% confluency and washed once with 2 ml 37° C. PBS prior to addition of polypeptide formulations.\nTechnique #1: Peptide formulations were diluted by addition of 150 μl 37° C. PBS (180-200 μl total volume). Formulations were than added to cells on cover slips. Following a 5 min incubation at room temperature (RT) 0.8 ml 37° C. DMEM was added to each well and cells were again incubated for 5 min at RT. Media was then aspirated off cells and 2.0 ml DMEM containing 10% bovine serum was added. […]\nVisualization of polypeptide delivery to cells: In order to visually analyze polypeptide delivery, cells were washed 3× with PBS, fixed for 30 min at 4° C. in PBS containing 4% formaldehyde and washed 3× with PBS. Cover slips were then mounted onto slides for fluorescence microscopy using a Zeiss LSM510 laser confocal microscope. Rhodamine was detected by exciting with a HeNe laser at 543 nm and detecting with a 560 nm long pass filter. […]",
  "data": [
    {"substance": "modification #26: Rhodamine-labeled Bovine Serum Albumin modified with chlorodimethyloctadecylsilane, dried, hydrated with PBS", "values": [
      {"measurement": "uptake of modified protein by cells", "result": "uptake of BSA"}
    ]}
  ]
}
